Assay results: patent US20170143674A1, “Use of Glutaryl Histamine for the Treatment of Respiratory Tract Diseases” (LTD "VALENTA-INTELLEKT", priority 2011, published 2017)
Marks after values point to notes of the source that are not given here.

How the values were obtained:
[1] = test system: acute respiratory distress syndrome (ARDS); experiment: ARDS model, single intravenous LPS 7.5 mg/kg; assay type: in vivo, rat; details: Dexamethasone 5 mg/kg
Procedure: (§1) Since an intravenous administration of lipopolysaccharide (LPS) to animals is one of the most acceptable models for studying the pathogenesis, pathomorphological changes and consequences of acute respiratory distress syndrome, this model was used in this example. Tested medicament glutaryl histamine was administered for 9 days after the first administration of LPS, i.e. glutaryl histamine was administered for 12 days in total (3 days before the induction of ARDS and 9 days during and after the induction). The exception was dexamethasone since, according to the literature data and the information leaflet, long-time administration of steroidal anti-inflammatory agents can cause severe side effects. For this reason, dexamethasone was administered according to the following schedule: 49, 24 and 1 hour before the induction of ARDS in a dose of 5 mg/kg, for 3 days after the first injection of LPS in the same dose; the medicament was withdrawn by a gradual dose reduction for 3 days. Thus, dexamethasone was administered 9 times.
The mortality rate among the animals administered LPS in an intravenous dose of 7.5 mg/kg was 70% for 8 days. The most of them (60%) died on the first day, in particular, from 4 to 12-16 hours after the injection of LPS. The mortality rate among the animals administered glutaryl histamine was different from the rate in animals treated with dexamethasone; however, most of them also died on the first day, about in the same time period (Table 11).

[2] = test system: acute rhinosinusitis induced by intranasal administration of formalin; assay type: in vivo, rat
Procedure: Activity of glutaryl histamine was studied in an experimental model of acute rhinosinusitis (ARS).
Administration of 20 μl of 7.5% formalin to the rat nasal passages leads to the development of a clinical picture similar to the symptoms of acute rhinosinusitis in a human.
The tested medicament and reference medicaments were administered for 7 days after administration of 7.5% formalin. Normal saline solution was used as placebo. The animals were subjected to euthanasia on day 8 after induction of experimental acute rhinosinusitis by method of air embolism. During necropsy, nasal passages of all animals were sampled. The obtained material was placed into 10% neutral-buffered formalin for further histological analysis.
The mucous and submucous membranes of both nasal passages (respiratory and olfactory regions) of the experimental animals were subjected to a morphological analysis of the specific activity of glutaryl histamine.
After the clinical phase of the experiment, the material derived from the animals was subjected to the standard treatment to prepare histological paraffin sections with a thickness of 3 to 5 μm. The sections were stained with hematoxylin and eosin for a microscopic study. Comparison and histological analysis of changes were performed versus the group of intact rats.
The main pathological processes inherent in experimental acute rhinosinusitis, such as vascular congestion in mucous membrane, hyperplasia and necrosis of the epithelium, the number of caliciform cells within 1 mm of the mucous membrane in the nasal septum, were evaluated by a semi-quantitative method to evaluate the degree of pathophysiological changes in histological, histochemical and morphological studies.
The microscopic analysis of exudative disorder developed in rats with acute rhinitis was aimed at measuring the number of caliciform cells comprising acidic mucus (Table 3).

[3] = test system: acute respiratory distress syndrome (ARDS); experiment: ARDS model, multiple-dose intravenous LPS (LD30); assay type: in vivo, rat
Procedure: as §1
At this step, animals were administered LPS at more lower dose, but for longer time period. They were received 2 mg/kg on days 1 and 2, and 3 and 4 mg/kg on days 3 and 4, respectively. The maximum mortality rate, similarly to the single-dose administration of LD70, was on the first day. On eighth day, mortality reached 33%.
The second step of the experiment comprises the evaluation of both the mortality rate of the animals with calculation of the protective index and narrower indexes used for determination of a specific protection provided by glutaryl histamine in ARDS. As was disclosed above, a lower dose of LPS (LD30) was used at the second stage. In addition, LPS was administered every day for 4 days. This method of administration was aimed at achieving the maximum disorder exactly in the lung for subsequent evaluation of possible protective action of glutaryl histamine.

LPS-induced tonsillitis = LPS-induced tonsillitis model (E. coli LPS into cervical lymph node); assay type: in vivo
Procedure: This example is aimed at evaluating the activity of glutaryl histamine on experimental model of tonsillitis. LPS-induced tonsillitis is one of the most adequate models for the study of the pathogenesis, pathomorphological changes and action of pharmacological medicaments on the course of this disease.
Tonsillitis was induced under anesthesia by administration of a solution of E. coli lipopolysaccharide (LPS) (Sigma) in normal physiological solution in a dose of 20 μg/kg, by 10 μl to the right upper lymph node (Inn. Cervicales superficiales). After administration, the lymph nodes were put under superficial neck muscles and then the skin was stitched. The wound was treated with streptocide. The animal was placed into a post-operation cage.
The tested medicament was administered once daily in a given dose strictly at the stated time for three days before the induction of tonsillitis and 10 days after. Normal saline solution was used as placebo.
Immediately after euthanasia, the animals were subjected to necropsy, the affected and intact lymph nodes were removed and weighed.
The lymph nodes derived from the half of animals from each group were being frozen after removal in a refrigerating chamber at −25° C. for 72 hours. Then the lymph nodes were lyophilized.
In a half of animals from each group (7), the affected lymph nodes were subjected to histological analysis. After euthanasia, intact and affected lymph nodes were removed from each animal. […] Sections with a thickness of 4 to 6 μm were prepared from the paraffin blocks, stained with hematoxylin and eosin to reveal typical pathological processes and study required parameters using light-optical microscope Leica DM LS (magnification 200× and 400×).
Weights of intact and affected lymph nodes were compared and the nodes also were lyophilized to evaluate an effect of the medicaments on the swelling degree and adequacy of the model of tonsillitis.
The protein-synthetic function of the liver and a systemic effect of the medicaments on organism were evaluated in total protein (TP) analysis.

SMILES: C[C@@H]1C[C@H]2[C@@H]3CCC4=CC(=O)C=C[C@]4(C)[C@@]3(F)[C@@H](O)C[C@]2(C)[C@@]1(O)C(=O)CO [Dexamethasone, dexamethasone, reference compound]
- IP (%) (protective index) [1]: 28.6%
- S (%) (survival rate) [1]: 50%
- Me (%) (mortality rate) ([1]; 8 days): 50%
- Died ([1]; total number 10): 5
- Mucopurulent catarrh (number of rats) ([2]; Dexamethasone 5 mg/kg, n = 10): 0
- Mucous catarrh (number of rats) ([2]; Dexamethasone 5 mg/kg, n = 10): 1
- Without changes (number of rats, mucous membrane in the nasal passages, macroscopic) ([2]; Dexamethasone 5 mg/kg, n = 10): 9
- The number of caliciform cells within 1 mm of the mucosal membrane of the nasal septum ([2]; Dexamethasone (5 mg/kg), M ± m): 15.6 ± 0.6
- IP (%) (protective index) ([3]; Dexamethasone 5 mg/kg): 62.5%
- M (%) (mortality rate) ([3]; Dexamethasone 5 mg/kg): 12.5%
- S (%) (survival rate) ([3]; Dexamethasone 5 mg/kg): 87.5%
- Died ([3]; Dexamethasone 5 mg/kg, total number 24): 3
- mortality rate for the first three days ([3]; dexamethasone (5 mg/kg), first three days): 0%
- Mortality rate (%) (LPS-induced tonsillitis; Dexamethasone 5 mg/kg): 64%
- The number of died animals/initial number of animals in a group (LPS-induced tonsillitis; Dexamethasone 5 mg/kg): 9/14
- Area of germinal centers of lymphoid follicles in affected lymph nodes (LPS-induced tonsillitis; Dexamethasone (5 mg/kg), M ± m): 0.016 ± 0.004* ** mm^2
- Weight difference between affected and intact lymph nodes (LPS-induced tonsillitis; Dexamethasone (5 mg/kg), M ± m): 15.6 ± 1.8 mg
